Measurements published in paper PMC10761937, “Functional engineering of human iPSC‐derived parasympathetic neurons enhances responsiveness to gastrointestinal hormones” (FEBS Open Bio, 2023).

How the values were obtained:
[1] = system: NPY2R‐neurons; experiment: Ca^2+ imaging, NPY2R‐neurons (iPSC‐derived); assay type: cell-based, human
Procedure: (§1) Before initiating differentiation, the iPSCs (1–2 × 10^5 cells·cm^−2; Cell lines and cell culture section) were transferred to 6‐well plates (Corning, Inc., Corning, NY, USA) coated with 2‐methacryloyloxyethyl phosphorylcholine (MPC) polymer (Lipidure CM5206E; NOF, Tokyo, Japan). The cells were maintained in mTeSR1 cGMP medium containing 10 μM Y‐27632 (Fujifilm Wako Pure Chemical Industries) for 2 or 3 days to form embryoid body (EBs) in a rotary shaker at 95 r.p.m. (OS‐762RC; Optime, Tokyo, Japan). Subsequently, iPSCs were differentiated into neural crest cells (NCCs), as previously reported. Briefly, NCCs were induced from Ebs using knockout serum replacement (KSR) medium and N2 medium with graded addition of nerve growth factors and signaling factors. KSR medium was composed of DMEM‐F12 (Fujifilm Wako Pure Chemical Industries), 20% KSR (Thermo Fisher Scientific), 1% NEAA, 1% monothioglycerol (Fujifilm Wako Pure Chemical Industries), and 1% P/S. N2 medium consisted of DMEM‐F12, 1% N2 supplement (Fujifilm Wako Pure Chemical Industries), 1% NEAA, and 1% P/S. When EB formation was considered day 0 of induction, the medium was changed at days 2, 5, 7, 9, and 12. […]

[2] = system: NPY2R‐neurons; experiment: MEA recording of neuronal firing, NPY2R‐neurons; assay type: cell-based, human; conditions: PYY, 10 nM or 100 nM (both printed in Fig. 6 legend); day 27; 0 nM n = 8 electrodes, 100 nM n = 6 electrodes; Fig. 6F
Procedure: as §1

Substance: PYY: PYY (4400‐v; Peptide Institute, Inc.); PYY (3–36) in Ca2+ imaging
- Intracellular Ca^2+ concentration (traces) ([1]; 100 nM PYY (PYY (3–36) in method), NPY2R‐neurons day 35, Fluo‐8 AM, Fig. S5C): increased intracellular Ca^2+ concentration
- Fluorescence intensity (ΔF stim/F 0) ([1]; PYY, 10 nM per Fig. 6 legend (100 nM in text and Fig. S5C), day 35, n = 10, Student's t‐test vs. 0 nM, Fig. 6E): significantly increased fluorescence intensity
- Firing frequency [2]: significantly increased fluorescence intensity and firing frequency
